According to PubChem BioAssay AID248 (DTP/NCI, 2004):
Several values for one entry are separate records, joined by “and”; a condition that tells them apart may be missing. Identical values can stand only once. Inconclusive results and toxic doses are left out. No stated cut-off is given here; in the data, active means T/C of 150% or more; inactive means T/C below 125%.

Tested on: L1210 leukemia ip in BDF1 mice, survival T/C
Assay: NCI In Vivo Anticancer Drug Screen. Data for tumor model L1210 Leukemia (intraperitoneal) in B6D2F1 (BDF1) mice
Settings: endpoint: mean survival time, higher = longer survival
Procedure, shortened: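 Each compound was tested against a transplantable tumor grown in mice. The endpoint was survival, with treated animals benchmarked against vehicle controls as a simple ratio.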

[1] = dose: 100.0 mg/kg/injection, schedule: Q01DX001 (ip), vehicle: saline with Tween-80
[2] = dose: 200.0 mg/kg/injection, schedule: Q01DX001 (ip), vehicle: saline with Tween-80
[3] = dose: 100.0 mg/kg/injection, schedule: Q01DX009 (ip), vehicle: saline with Tween-80
[4] = dose: 50.0 mg/kg/injection, schedule: Q01DX009 (ip), vehicle: saline with Tween-80
[5] = dose: 200.0 mg/kg/injection, schedule: Q01DX009 (ip), vehicle: saline with Tween-80
[6] = dose: 100.0 mg/kg/injection, schedule: Q01DX001 (ip), vehicle: saline
[7] = dose: 100.0 mg/kg/injection, schedule: Q01DX001 (ip), vehicle: Klucel (hydroxypropylcellulose) (HPC)
[8] = dose: 200.0 mg/kg/injection, schedule: Q01DX001 (ip), vehicle: Klucel (hydroxypropylcellulose) (HPC)
[9] = dose: 400.0 mg/kg/injection, schedule: Q01DX001 (ip), vehicle: Klucel (hydroxypropylcellulose) (HPC)
[10] = dose: 100.0 mg/kg/injection, schedule: Q01DX009 (ip), vehicle: Klucel (hydroxypropylcellulose) (HPC)
[11] = dose: 100.0 mg/kg/injection, schedule: Q04DX002 (ip), vehicle: Klucel (hydroxypropylcellulose) (HPC)
[12] = dose: 200.0 mg/kg/injection, schedule: Q01DX009 (ip), vehicle: Klucel (hydroxypropylcellulose) (HPC)
[13] = dose: 200.0 mg/kg/injection, schedule: Q04DX002 (ip), vehicle: Klucel (hydroxypropylcellulose) (HPC)
[14] = dose: 400.0 mg/kg/injection, schedule: Q01DX009 (ip), vehicle: Klucel (hydroxypropylcellulose) (HPC)
[15] = dose: 400.0 mg/kg/injection, schedule: Q04DX002 (ip), vehicle: Klucel (hydroxypropylcellulose) (HPC)
[16] = dose: 200.0 mg/kg/injection, schedule: Q01DX001 (ip), vehicle: saline
[17] = dose: 400.0 mg/kg/injection, schedule: Q01DX001 (ip), vehicle: saline

Measured: T/C

Nc1nc(N)c(N)c(SCC(=O)C(=O)O)n1
inactive: dose: 25.0 mg/kg/injection, schedule: Q01DX001 (ip), vehicle: saline with Tween-80 108 % of control | dose: 50.0 mg/kg/injection, schedule: Q01DX001 (ip), vehicle: saline with Tween-80 111 % of control | [1] 106 % of control and 108 % of control | [2] 115 % of control

CC1CCCNC1C (configuration not stated)
inactive: dose: 25.0 mg/kg/injection, schedule: Q01DX009 (ip), vehicle: saline 95 % of control | dose: 50.0 mg/kg/injection, schedule: Q01DX009 (ip), vehicle: saline 103 % of control | [3] 102 % of control | dose: 100.0 mg/kg/injection, schedule: Q01DX009 (ip), vehicle: saline 100 % of control

COC1C(OC(C)=O)C(OC(C)=O)C(OC(C)=O)C(OC(C)=O)C1OC(C)=O (configuration not stated)
inactive: [4] 94 % of control | [3] 98 % of control | [5] 88 % of control

C=NC
inactive: [6] 105 % of control | dose: 100.0 mg/kg/injection, schedule: Q04DX003 (ip), vehicle: saline 103 % of control

COc1ccc(OC)c(CCl)c1
inactive: dose: 75.0 mg/kg/injection, schedule: Q01DX009 (ip), vehicle: Klucel (hydroxypropylcellulose) (HPC) 97 % of control | dose: 150.0 mg/kg/injection, schedule: Q01DX009 (ip), vehicle: Klucel (hydroxypropylcellulose) (HPC) 103 % of control | dose: 300.0 mg/kg/injection, schedule: Q01DX009 (ip), vehicle: Klucel (hydroxypropylcellulose) (HPC) 91 % of control

CC1(C)C2=CCCCC2CC/C1=N\O (configuration not stated)
inactive: [7] 105 % of control | [8] 105 % of control | [9] 100 % of control

O=C(Nc1cccc(NC(=O)Nc2cc(C(O)=Nc3ccc(C4=NCCN4)cc3)ccc2C(O)=Nc2ccc(C3=NCCN3)cc2)c1)Nc1cc(C(O)=Nc2ccc(C3=NCCN3)cc2)ccc1C(O)=Nc1ccc(C2=NCCN2)cc1
inactive: dose: 15.0 mg/kg/injection, schedule: Q01DX Z (ip), vehicle: saline 92 % of control | dose: 30.0 mg/kg/injection, schedule: Q01DX Z (ip), vehicle: saline 97 % of control | dose: 60.0 mg/kg/injection, schedule: Q01DX Z (ip), vehicle: saline 102 % of control | dose: 120.0 mg/kg/injection, schedule: Q01DX Z (ip), vehicle: saline 105 % of control

COc1ccc(NC(=O)Oc2cccc(OC(=O)c3ccccc3)c2)cc1
inactive: [7] 96 % of control | [10] 104 % of control and 106 % of control | [11] 93 % of control and 103 % of control and 106 % of control | dose: 100.0 mg/kg/injection, schedule: Q04DX003 (ip), vehicle: Klucel (hydroxypropylcellulose) (HPC) 98 % of control | [8] 93 % of control | [12] 100 % of control and 103 % of control | [13] 99 % of control and 100 % of control and 103 % of control | dose: 200.0 mg/kg/injection, schedule: Q04DX003 (ip), vehicle: Klucel (hydroxypropylcellulose) (HPC) 98 % of control | [9] 93 % of control | [14] 97 % of control and 98 % of control | [15] 93 % of control and 97 % of control and 99 % of control | dose: 400.0 mg/kg/injection, schedule: Q04DX003 (ip), vehicle: Klucel (hydroxypropylcellulose) (HPC) 91 % of control

N#C/C(=C\c1ccc(Cl)cc1)c1cccc2ccccc12
inactive: [10] 92 % of control | [12] 92 % of control | [14] 90 % of control

COc1ccc(NC(=S)Nc2ccccc2)cc1
inactive: dose: 100.0 mg/kg/injection, schedule: Q04DX002 (ip), vehicle: saline with Tween-80 101 % of control | dose: 200.0 mg/kg/injection, schedule: Q04DX002 (ip), vehicle: saline with Tween-80 108 % of control | dose: 400.0 mg/kg/injection, schedule: Q04DX002 (ip), vehicle: saline with Tween-80 108 % of control

Cc1cc2ccccc2c2cc3ccccc3cc12
inactive: [10] 104 % of control | dose: 100.0 mg/kg/injection, schedule: Q04DX003 (ip), vehicle: other 111 % of control | [12] 109 % of control | dose: 200.0 mg/kg/injection, schedule: Q04DX003 (ip), vehicle: other 106 % of control | [14] 107 % of control | dose: 400.0 mg/kg/injection, schedule: Q04DX003 (ip), vehicle: other 111 % of control

C[N+](C)(C)/N=C1\CCc2ccccc21
inactive: [4] 100 % of control | dose: 50.0 mg/kg/injection, schedule: Q04DX003 (ip), vehicle: saline with Tween-80 110 % of control | [1] 97 % of control | [3] 97 % of control | dose: 100.0 mg/kg/injection, schedule: Q04DX003 (ip), vehicle: saline with Tween-80 98 % of control | [2] 100 % of control | [5] 103 % of control | dose: 200.0 mg/kg/injection, schedule: Q04DX003 (ip), vehicle: saline with Tween-80 91 % of control

COc1ccc(/C=N\O)cc1OC
inactive: [3] 94 % of control and 90 % of control | [5] 101 % of control | dose: 400.0 mg/kg/injection, schedule: Q01DX009 (ip), vehicle: saline with Tween-80 90 % of control

CCCCCC(=O)c1ccc(O)cc1O
inactive: dose: 12.5 mg/kg/injection, schedule: Q01DX009 (ip), vehicle: gum acacia 104 % of control | dose: 25.0 mg/kg/injection, schedule: Q01DX009 (ip), vehicle: gum acacia 109 % of control | dose: 50.0 mg/kg/injection, schedule: Q01DX009 (ip), vehicle: gum acacia 93 % of control and 95 % of control | dose: 100.0 mg/kg/injection, schedule: Q04DX003 (ip), vehicle: gum acacia 95 % of control | dose: 200.0 mg/kg/injection, schedule: Q04DX003 (ip), vehicle: gum acacia 94 % of control

O=[N+]([O-])c1ccc(Cl)cc1C1OCCO1
inactive: [6] 93 % of control | [16] 93 % of control | [17] 104 % of control

COc1ccc(C)cc1CCC=O
inactive: [6] 97 % of control | [16] 101 % of control | [17] 95 % of control

CSc1cc(C)c(O)c(C)c1
inactive: dose: 100.0 mg/kg/injection, schedule: Q01DX009 (ip), vehicle: other 98 % of control | dose: 200.0 mg/kg/injection, schedule: Q01DX009 (ip), vehicle: other 101 % of control

Clc1cc(Cl)nc(N2CC2)n1
inactive: dose: 0.02 mg/kg/injection, schedule: Q01DX Z (ip), vehicle: methylcellulose (MC) 91 % of control | dose: 6.25 mg/kg/injection, schedule: Q01DX009 (ip), vehicle: acetone 108 % of control | dose: 12.5 mg/kg/injection, schedule: Q01DX009 (ip), vehicle: acetone 111 % of control | dose: 12.5 mg/kg/injection, schedule: Q04DX003 (ip), vehicle: saline 98 % of control | dose: 25.0 mg/kg/injection, schedule: Q04DX003 (ip), vehicle: saline 92 % of control

Nc1ccccc1SC(CC(=O)c1ccccc1)c1ccc(Cl)cc1 (configuration not stated)
inactive: dose: 100.0 mg/kg/injection, schedule: Q01DX005 (ip), vehicle: Klucel (hydroxypropylcellulose) (HPC) 91 % of control | [11] 89 % of control | dose: 200.0 mg/kg/injection, schedule: Q01DX005 (ip), vehicle: Klucel (hydroxypropylcellulose) (HPC) 97 % of control | [13] 95 % of control | dose: 400.0 mg/kg/injection, schedule: Q01DX005 (ip), vehicle: Klucel (hydroxypropylcellulose) (HPC) 97 % of control | [15] 100 % of control
